Measured values from patent US12433903B2 (priority 2021, dated 2025).

Columns and labels:
[1] = PK study after oral (PO) or intraperitoneal (IP) administration; assay type: in vivo, male Sprague Dawley rats; details: CBG 30 mg/kg PO or IP; Compound 1 31.5 mg/kg PO; Compound 2 32.7 mg/kg PO
Method: This study evaluated the pharmacokinetics of (E)-2-(3,7-dimethylocta-2,6-dien-1-yl)-3-methoxy-5-pentylphenol (1) and (E)-2-(3,7-dimethylocta-2,6-dien-1-yl)-1,3-dimethoxy-5-pentylbenzene (2) following oral (PO) or intraperitoneal (IP) administration to male Sprague Dawley rats.
For the oral formulation the test article was added to the appropriate amount of Maisine and stirred until uniform. Next Labrasol was added to the formulation and allowed to stir until uniform. Finally, water will be slowly added to the stirring formulation to achieve the final volume.
For the IP formulation the test article was added to the appropriate amount of ethanol and stirred until uniform. Next, the appropriate amount of tween-20 was added to the stirred formulation. Finally, the appropriate amount of saline was slowly added to the stirred formulation to achieve the final volume.
Animals were fasted the evening prior to dosing with food returned at 4 h postdose, and the animals weighed on the morning of dose administration.
IP doses were administered via injection to the intraperitoneal region. PO doses were delivered into the stomach via syringe and gavage tube.
Blood was collected from via direct jugular stick or from the tail vein. Blood samples were kept on ice until being centrifuged at 3200 RPM for 10 minutes at ˜5° C. within 1 h of collection. Plasma was split into 2 cryovials in approximately equal volumes (0.05 mLs) and stored at −20° C.±5° C. until shipment.

[2] = tested on: cryopreserved hepatocytes; experiment: Hepatocyte stability and metabolite profiling, human; assay type: in vitro ADME; details: human hepatocyte samples, 40 and 60 minute
Method: The objective of this study was to investigate the stability of the test compound, CBG, in human, rat, dog, mouse, monkey and minipig cryopreserved hepatocytes. Follow-on metabolite profiling was performed.
CBG was incubated up to 2 hr with cryopreserved hepatocytes. Cryopreserved hepatocytes in suspension were added to test compound in supplemented media following pre-incubation to initiate the reaction and the reactions were stopped by organic solvent at the appropriate time points. The termination plates were centrifuged and sample supernatants were analysed using Cyprotex generic LC MS/MS conditions to generate intrinsic clearance values for CBG. Two control compounds for each species were included in the assay and if the values for these compounds were not within the specified limits the results were rejected and the experiment repeated.
Following the hepatocyte stability assay the samples were 59 tilized for metabolite profiling using suitable high-resolution LC-MS/MS conditions. The 40 and 60 minute human samples, 20 and 120 minute rat samples, 10 and 20 minute dog and monkey samples, 20 and 60 minute mouse samples, and 40 and 120 minute minipig samples were compared against the 0 minute control sample to establish which and how many metabolites were formed. […]
The areas and percentages reported for the parent and metabolites were calculated using the XIC data. […]

all the UGTs combined = experiment: UGT reaction phenotyping, all the UGTs combined; assay type: in vitro ADME, Human
Text: Experimental Summary: UGT Reaction Phenotyping (7 Isoforms).

[3] = tested on: p-cMyc(S62), cMyc, p-AKT(S473), AKT, p-ERK(T202/Y204), ERK in SW620, HCT15, HCT116 cells; experiment: Target engagement by Western blot in colon cancer cell lines; assay type: cell-based; details: HCT 116 cells; 10-80 μM, 3 hours; with a dose effect
Method: For Western blot, the compounds were tested at 4 concentrations for 3 hours on 3 colon cancer cell lines. The compounds, concentrations, colon cancer cell line panel, and antibodies panel tested are the following: • CBG: 0 μM, 10 μM, 20 μM, 40 μM, and 80 μM. • Compound 1: 0 μM, 10 μM, 20 μM, 40 μM, and 80 μM. • Compound 2: 0 μM, 10 μM, 20 μM, 40 μM, and 80 μM. • Colon cancer cell line panel: SW620, HCT15, HCT116 • Antibodies panel: p-cMYC(S62), cMyc, p-AKT(S473), AKT, p-ERK(T202/Y204), ERK Methods
Evaluation of target engagement was performed to determine the expression of specific marker protein expression and underlying signaling pathways with Western blot.
Western blot. Whole cell extracts were prepared by incubating cell pellets in IP lysis buffer supplemented with protease and phosphatase inhibitors (Roche). Isolated protein was quantified by Pierce BCA Protein assay (ThermoFisher). Equal quantities of protein were separated by 4-15% SDS-PAGE electrophoresis gels and transferred onto nitrocellulose membranes. Membranes was blocked with 5% nonfat milk in Tris-buffered saline-Tween buffer. […]

CCCCCc1cc(O)c(C/C=C(\C)CCC=C(C)C)c(O)c1 [CBG, cannabigerol]
glucuronidation / glucuronide formation in plasma (in words) [1]: converted by glucuronidation to CBG-glucoronide | metabolites observed (number) [2]: Seven | activity of UGT2B7 relative to UGT1A9 (all the UGTs combined): approximately 1/10 | share of the activity for all the UGTs combined represented by UGT1A9 (all the UGTs combined): ~80%

CCCCCc1cc(O)c(C/C=C(\C)CCC=C(C)C)c(OC)c1 [Compound 1, (E)-2-(3,7-dimethylocta-2,6-dien-1-yl)-3-methoxy-5-pentylphenol]
glucuronidation / glucuronide formation in plasma (in words) [1]: significantly reduced levels of glucuronidation compared to CBG | pAKT(S473) (Western blot) [3]: down-regulated
